Key:
[1] = Stability of the PDC in human serum/plasma by HPLC; format: in vitro ADME; details: human serum (methods: human plasma), 37 °C
Source text: HP (calcd Mw: 3183.7) was successfully synthesized by using solid-phase peptide synthesis (SPPS), and the peptides were cleaved and purified by HPLC (Figure S2) afterward and verified by using electrospray ionization mass spectrometry examinations (Figure 2a). […] The mass charge ratio (m/z) obtained by the experiment is consistent with the theoretical m/z. […] Polyethylene glycol (PEG) has been widely used to modify small molecules to slow renal clearance and to increase the half-life. It is essential that the PDC be maintained in a steady circulation to prevent pre-release of cytotoxic payloads, resulting in systemic toxicity. […] To assess plasma stability, the PDC was incubated with human serum at 37 °C from 0 to 48 h, and aliquots were taken at different time points and analyzed by using HPLC. […]
To quantify the amount of DOX released from the PDC, 1 mg of the substance was dissolved in 2 mL of ultra-pure water and placed into a dialysis bag (MWCO 1000 Da). […] The samples were analyzed for released DOX concentration using a fluorescence spectrophotometer at 589 nm and the DOX concentration was calculated based on a standard curve. […] After centrifugation at 13,000× g for 10 min, the supernatant was collected and the intact percentage of the PDC was detected by HPLC [19].

[2] = In vitro DOX release from the PDC (dialysis in PBS); format: physicochemical; details: fluorescence at 589 nm
Source text: (§1) Based on the specific acidic tumor microenvironment (pH5.4–7.0), an acid-responsive linker was designed to undergo acid hydrolysis after cellular uptake, releasing the drug into endosomes or lysosomes to achieve site-specific delivery. It is theoretically possible that a HPD with an acid-sensitive hydrazone bond can display a regulated release behavior when the external pH value is altered. As observed from the drug release profile in Figure 3a, the PDC remains structurally stable in PBS at a pH of 7.4, as only about 35% of DOX is released within 24 h. In contrast, when the pH of PBS is reduced to 5.8, there is an explosive release of DOX in acidic media due to the pH-sensitive hydrolysis of the […] bond between DOX and the EMCH linker. […] Figure 3b illustrates that the cytotoxicity of the PDC and free DOX on SKBR-3 cells augmented with prolonged incubation time. When the equivalent concentration was 1 μM, the viability of SKBR-3 cells in the PDC group was 26.3%. […] To determine if our novel conjugate could enhance the effect of DOX through PEGylation and HER2-receptor-mediated internalization, we tested the cytotoxic effect of the PDC on MCF-7 and SKBR-3 breast cancer cells.
To quantify the amount of DOX released from the PDC, 1 mg of the substance was dissolved in 2 mL of ultra-pure water and placed into a dialysis bag (MWCO 1000 Da). This bag was then transferred to a tube containing 10 mL of PBS solution with varying pH values (7.4 and 5.8). The tube was stirred at 37 °C in the dark and samples of the PBS solution were collected at different intervals. Subsequently, a new 10 mL of PBS was added to the tube after each sample. The samples were analyzed for released DOX concentration using a fluorescence spectrophotometer at 589 nm and the DOX concentration was calculated based on a standard curve. The PDC was incubated with human plasma (final peptide concentration of 50 μM) for 0, 2, 4, 8, 12, 24, and 48 h in order to assess the stability of the conjugate. Then, […] of the solution was mixed with […] of methanol to terminate enzymatic hydrolyses. After centrifugation at 13,000× g for 10 min, the supernatant was collected and the intact percentage of the PDC was detected by HPLC [19].

[3] = tested on: SKBR-3 cells; test: Cytotoxicity assay (CCK8 kit); format: cell-based, human; details: for IC50: 48 h incubation, 0 to 1 μM, CCK8, from dose response log curves
Source text: as §1
Cultures of SKBR-3 and MCF-7 cells were established in DMEM medium supplemented with 10% fetal bovine serum, 100 U/mL penicillin, and 100 μg/mL streptomycin at 37 °C and 5% CO2. Approximately 1 × 10^5 cells/mL were seeded into culture dishes and incubated overnight. Subsequently, 0.5 mg/mL PDC was added and incubated for 2–8 h in conjunction with an equal amount of free DOX as a control. After washing three times with PBS, Hoechst 33342 and LysoTracker Green DND-26 were added to stain the nucleus and lysosome for 15 min, followed by three additional washes with PBS. Finally, confocal fluorescence images were obtained using a Zeiss 710 system. SKBR-3 cells were seeded in a 96-well culture plate at a density of 5000 cells per well and incubated for 24 h. Afterwards, cytotoxicity investigations were conducted by incubating the cells with the PDC and free DOX (in concentrations from 0 to 1 μM) for 48 h. Then, the CCK8 kit was used to detect cell survival.

[4] = tested on: SKBR-3 cells; test: Cellular uptake and lysosome colocalization by CLSM; format: cell-based, human
Method: To assess the uptake efficiency of the PDC in tumor cells, human breast cancer cell lines SKBR-3 (high expression of HER2) were used as positive cells, and the MCF-7 cell line was used as a negative control. […] Along with the incubation time, DOX escaped from the lysosomes, and brighter red fluorescence was detected in the nuclei after 8 h of incubation (Figure 4a). It has been observed that peptide conjugates in the acidic environment of endosomes/lysosomes undergo hydrolysis at the acid-response hydrazone linker, thereby releasing DOX into cells, which is in line with prior reports. […] The lysosomal escape ability was evaluated by the localization of the PDC and lysosomes in SKBR-3 cells (Figure 4c), evidenced by the separation of red (DOX) and green (LysoTracker) fluorescence.
Cultures of SKBR-3 and MCF-7 cells were established in DMEM medium supplemented with 10% fetal bovine serum, 100 U/mL penicillin, and 100 μg/mL streptomycin at 37 °C and 5% CO2. Approximately 1 × 10^5 cells/mL were seeded into culture dishes and incubated overnight. Subsequently, 0.5 mg/mL PDC was added and incubated for 2–8 h in conjunction with an equal amount of free DOX as a control. […] Finally, confocal fluorescence images were obtained using a Zeiss 710 system. […]

[5] = tested on: BALB/c nude mice; test: In vivo safety: body weight and H&E staining of major organs; details: 5 mg/kg equivalent DOX i.v., five times every two days; for body weight change versus PBS group: n = 4; for H&E histology of major organs: compared with PBS group
Method: (§2) In vivo anti-tumor studies were evaluated by using SKBR-3 xenografted (BALB/c nude) mice treated with the PDC, free DOX, or saline. […] Additionally, histological examination of the tumors was performed. […] A TUNEL assay indicated a greater number of apoptotic cells after treatments with the PDC group compared to the free DOX group and reduced the offtarget effects (Figure 5d).
Good biocompatibility and the acceptable biosafety of a drug are essential for its biological application. […] The PDC had higher in vivo anti-tumor efficacy than DOX without apparent toxicities.
(§3) In this study, a total of 12 female BALB/c mice (22–24 g) were used, and all animal experiments were conducted in compliance with the ethical guidelines approved by the ethics committee of Fujian Medical University. Approximately 2 × 10^6 SKBR-3 cells were injected subcutaneously in the right hind limb of the nude mice. Upon the tumor reaching a volume of around 100 mm^3, the mice were randomly allocated into three groups (n = 4) and administered through the tail vein with PBS, free DOX solution, and PDC solution (5 mg/kg equivalent DOX), respectively, five times every two days. Saline was used as a negative control. After each administration, the size and weight of the tumor were assessed. Subsequently, the mice were euthanized, and their tumor tissues and other major organs were dissected and preserved with 4% formaldehyde. Paraffin sections were then produced, and the fixed paraffin-embedded tissues were sliced into 5 μm sections for hematoxylin and eosin (H&E) and TUNEL (terminal deoxynucleotidyl transferase dUTP nick-end labeling) analyses.

[6] = tested on: SKBR-3 xenografted (BALB/c nude) mice; test: In vivo anti-tumor study; details: SKBR-3 xenograft, 5 mg/kg equivalent DOX, tail vein, five times every two days, n = 4, day 14
Method: as §2
as §3, with “Paraffin sections were then produced, and the fixed paraffin-embedded tissues were sliced into 5 μm sections for hematoxylin and eosin (H&E) and TUNEL (terminal deoxynucleotidyl transferase dUTP nick-end labeling) analyses.” left out

Row | SMILES | half-life at 50 μM ([1]; 50 μM final peptide concentration, 0-48 h, methanol quench, intact PDC by HPLC, read-out: half-life of the conjugate (converted)) [h] | remaining at 48 h, 50 μM ([1]; 50 μM, 48 h incubation, HPLC, read-out: intact conjugate remaining at 48 h) [%] | DOX released within 8 h, pH 5.8 ([2]; PBS pH 5.8, 37 °C, dialysis MWCO 1000 Da, 8 h) [%] | DOX released within 24 h, pH 5.8 ([2]; PBS pH 5.8, 37 °C, dialysis MWCO 1000 Da, 24 h) [%] | DOX released, pH 5.8, start of the rise ([2]; PBS pH 5.8, 37 °C, dialysis MWCO 1000 Da, early value, time not given) | DOX released within 24 h, pH 7.4 ([2]; PBS pH 7.4, 37 °C, dark, dialysis bag MWCO 1000 Da, 1 mg in 2 mL water against 10 mL PBS, 24 h) | cytotoxic effect on SKBR-3 versus MCF-7 breast cancer cells ([3]; 48 h, Figure S4, HER2 high-expression SKBR-3 vs MCF-7) | IC50 of the PDC relative to free DOX ([3]; SKBR-3 cells, 48 h) | IC50 ([3]; SKBR-3 cells) [µM] | viability of SKBR-3 cells ([3]; equivalent concentration 1 μM, 48 h, CCK8) [%] | uptake of the PDC in SKBR-3 versus MCF-7 cells ([4]; CLSM, Figure S3, HER2 negative MCF-7) | cellular uptake relative to free DOX ([4]; HER2-positive SKBR-3 cells) [times] | body weight change versus PBS group [5] | H&E histology of major organs [5] | reduction of tumor growth on day 14 post treatment [6] [%]
1 | COc1cccc2c1C(=O)c1c(O)c3c(c(O)c1C2=O)C[C@@](O)(C(CO)=NNC(=O)CCCCCN1C(=O)CC(SC[C@H](NC(=O)CCOCCOCCOCCOCCNC(=O)[C@H](CCCCNC(=O)CCOCCOCCOCCOCCNC(=O)[C@H](CCCCN)NC(=O)[C@H](CC(C)C)NC(=O)[C@H](CCCNC(=N)N)NC(=O)[C@H](CC(C)C)NC(=O)[C@H](CCC(=O)O)NC(=O)[C@H](Cc2c[nH]c4ccccc24)NC(=O)[C@H](CC(N)=O)NC(=O)[C@@H](N)CCCNC(=N)N)NC(=O)CCOCCOCCOCCOCCNC(=O)[C@H](CCCCN)NC(=O)[C@H](CC(C)C)NC(=O)[C@H](CCCNC(=N)N)NC(=O)[C@H](CC(C)C)NC(=O)[C@H](CCC(=O)O)NC(=O)[C@H](Cc2c[nH]c4ccccc24)NC(=O)[C@H](CC(N)=O)NC(=O)[C@@H](N)CCCNC(=N)N)C(=O)O)C1=O)C[C@@H]3O[C@H]1C[C@H](N)[C@H](O)[C@H](C)O1 (stereo partly shown) [PDC] | ~24 | ~15 | 78 | ~90 | around 20% | about 35% | significantly more cytotoxic in the HER2 high-expression cell lines | three times less | 0.143 | 26.3 | higher uptake rate | 2.9 | no noteworthy distinction in body weight | no morphological aberrations in organ tissues | 51.1 ± 3.1
2 | COc1cccc2c1C(=O)c1c(O)c3c(c(O)c1C2=O)C[C@@](O)(C(=O)CO)C[C@@H]3O[C@H]1C[C@H](N)[C@H](O)[C@H](C)O1.Cl [free DOX, doxorubicin hydrochloride, reference compound] |  |  |  |  |  |  |  |  | 0.411 |  |  |  | significantly decreased | clear cardiotoxicities | 23.13 ± 2.4
